Like-named read-outs stand apart in the source and are kept apart here.
Key:
Assay in all cases: SelectScreen Kinase Profiling, single point inhibition and IC50 for off-target kinases
Assay type in all cases: biochemical
[1] = biological target: off-target kinases (Homo sapiens, UniProt Q13557); conditions: CAMK2D (CaMKII delta), ZLYTE, ATP Km app
[2] = biological target: T1, off-target kinases (Homo sapiens, UniProt P54753); conditions: EPHB3, ZLYTE, ATP Km app
T1 sequence (P54753 34-998): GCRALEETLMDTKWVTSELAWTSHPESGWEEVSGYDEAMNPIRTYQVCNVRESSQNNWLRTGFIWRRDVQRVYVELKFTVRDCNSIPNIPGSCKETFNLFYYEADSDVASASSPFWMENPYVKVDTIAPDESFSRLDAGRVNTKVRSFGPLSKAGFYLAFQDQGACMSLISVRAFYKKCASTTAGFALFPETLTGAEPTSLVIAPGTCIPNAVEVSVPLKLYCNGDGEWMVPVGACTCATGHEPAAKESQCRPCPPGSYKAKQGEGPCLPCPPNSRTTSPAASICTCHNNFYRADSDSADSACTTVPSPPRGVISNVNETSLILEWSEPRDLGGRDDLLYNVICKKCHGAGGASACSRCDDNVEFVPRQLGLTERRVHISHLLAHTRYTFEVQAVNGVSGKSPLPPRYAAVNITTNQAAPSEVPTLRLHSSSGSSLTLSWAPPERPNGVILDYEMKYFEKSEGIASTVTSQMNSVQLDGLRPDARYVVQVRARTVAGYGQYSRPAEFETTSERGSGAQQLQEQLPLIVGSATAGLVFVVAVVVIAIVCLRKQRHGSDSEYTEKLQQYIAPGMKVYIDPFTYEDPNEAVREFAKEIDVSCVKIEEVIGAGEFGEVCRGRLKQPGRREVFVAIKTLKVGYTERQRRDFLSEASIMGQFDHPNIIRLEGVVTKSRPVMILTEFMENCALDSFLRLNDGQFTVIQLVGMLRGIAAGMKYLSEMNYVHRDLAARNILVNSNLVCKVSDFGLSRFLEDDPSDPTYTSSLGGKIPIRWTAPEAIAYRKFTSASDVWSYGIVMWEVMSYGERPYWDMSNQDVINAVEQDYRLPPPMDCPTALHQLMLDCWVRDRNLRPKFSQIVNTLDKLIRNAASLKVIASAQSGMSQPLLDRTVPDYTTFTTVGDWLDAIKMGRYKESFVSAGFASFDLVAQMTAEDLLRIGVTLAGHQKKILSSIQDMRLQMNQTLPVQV

[3] = biological target: off-target kinases (Homo sapiens, UniProt Q02750); conditions: MAP2K1 (MEK1)
Chain of off-target kinases (Homo sapiens, UniProt Q02750) (Q02750 whole entry): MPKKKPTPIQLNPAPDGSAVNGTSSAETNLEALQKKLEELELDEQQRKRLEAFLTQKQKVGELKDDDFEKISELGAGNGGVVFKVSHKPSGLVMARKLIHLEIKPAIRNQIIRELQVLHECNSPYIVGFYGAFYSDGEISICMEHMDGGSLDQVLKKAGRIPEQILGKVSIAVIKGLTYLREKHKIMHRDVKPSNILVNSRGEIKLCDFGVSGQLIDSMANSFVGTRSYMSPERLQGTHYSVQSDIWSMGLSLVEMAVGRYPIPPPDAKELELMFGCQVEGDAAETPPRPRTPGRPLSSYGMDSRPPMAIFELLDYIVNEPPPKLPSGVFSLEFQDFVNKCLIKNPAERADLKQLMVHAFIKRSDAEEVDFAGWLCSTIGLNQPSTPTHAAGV

Chain of off-target kinases (Homo sapiens, UniProt Q13557) (Q13557 whole entry): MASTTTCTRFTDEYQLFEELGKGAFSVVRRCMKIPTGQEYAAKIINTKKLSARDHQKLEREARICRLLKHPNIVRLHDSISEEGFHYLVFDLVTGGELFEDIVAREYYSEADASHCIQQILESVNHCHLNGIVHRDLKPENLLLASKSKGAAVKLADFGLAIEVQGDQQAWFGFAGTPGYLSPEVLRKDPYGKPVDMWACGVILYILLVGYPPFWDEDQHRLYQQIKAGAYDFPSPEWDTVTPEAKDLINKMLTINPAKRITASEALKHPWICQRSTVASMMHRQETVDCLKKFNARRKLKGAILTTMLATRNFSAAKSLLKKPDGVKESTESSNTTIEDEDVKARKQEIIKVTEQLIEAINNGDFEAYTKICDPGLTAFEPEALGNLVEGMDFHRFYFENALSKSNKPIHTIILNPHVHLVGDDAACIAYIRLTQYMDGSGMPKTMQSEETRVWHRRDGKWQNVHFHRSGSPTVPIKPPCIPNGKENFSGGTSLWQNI

## N#Cc1cc(-c2ncnc(Nc3ccc(N4CCN(C5COC5)CC4)cc3)n2)ccc1OC1CCOCC1 [Compound 1, 5-(4-((4-(4-(oxetan-3-yl)piperazin-1-yl)phenyl)amino)-1,3,5-triazin-2-yl)-2-((tetrahydro-2H-pyran-4-yl)oxy)benzonitrile]
[1]; read-out: % Inhibition 1
  inhibition: 18%
[1]; read-out: % Inhibition 2
  inhibition: 19%
[1]; read-out: % Inhibition Avg
  inhibition: 19%
[2]; read-out: % Inhibition 1
  inhibition: 3%
[2]; read-out: % Inhibition 2
  inhibition: 3%
[2]; read-out: % Inhibition Avg
  inhibition: 3%
[3]; LanthaScreen Binding, read-out: % Inhibition 1
  inhibition: 6%
[3]; LanthaScreen Binding, read-out: % Inhibition 2
  inhibition: 5%
[3]; LanthaScreen Binding, read-out: % Inhibition Avg
  inhibition: 5%
[3]; ZLYTE, ATP 100, read-out: % Inhibition 1
  inhibition: 7%
[3]; ZLYTE, ATP 100, read-out: % Inhibition 2
  inhibition: 3%
[3]; ZLYTE, ATP 100, read-out: % Inhibition Avg
  inhibition: 5%

Source: patent publication US11572590B2, “Methods for evaluating tumor cell spheroids using 3D microfluidic cell culture device” (Dana-Farber Cancer Institute, Inc., priority 2017, dated 2023)
